Columns and labels:
[1] = test system: adipose-tissue-derived multi-lineage/multi-potent progenitor cells (ADMPC); test: Comparison of the induction of the expression of various markers by spermine and DMSO; assay type: cell-based, human
Protocol: (§1) Adipose tissues were provided by subjects from whom informed consent had been obtained by suction surgery from subcutaneous tissues. Neither steroid agent nor TZD had been administered to any of the subjects. Adipose tissues were cut into small pieces. Next, digestion was performed for 1 hour with shaking in 0.067% collagenase (Roche applied science)-containing Hanks' Balanced Salt Solution (HBSS) in a water bath at 37° C. The digested products were filtered through a Cell Strainer (BD Bioscience) and then centrifuged at 800 g for 10 minutes. Erythrocytes were removed by a specific gravity method using Lymphoprep (d=1.077) (Nycomed). The thus obtained Stromal Vascular Fraction (cells) was seeded into DMEM containing 10% fetal calf serum (Life Technologies). Cells were cultured for 24 hours so that they would adhere. After washing, the resultant was treated with EDTA, and ADMPC were thereby obtained. Next, ADMPC were seeded on a human-fibronectin-coated dish in medium I: 60% DMEM-low glucose, 40% MCDB201, […], 1 nM dexamethasone, 100 μM ascorbic acid, and 5% FBS at a density of 10,000 cells/cm^2, passaged 3 to 5 times, and then used for experiments.
(§2) Total RNA was isolated from the thus obtained cells using an RNeasy mini kit (Qiagen) according to protocols recommended by the manufacturer. Total RNA (500 ng) was subjected to DNase treatment, and then cDNA was synthesized using Superscript III reverse transcriptase RNase H (-) (Life Technologies).
(§3) Subsequently, TaqMan Universal PCR Master Mix (Applied Biosystems) (10 μl) and TaqMan Gene Expression Assays (Applied Biosystems) (1 μl) were added to the thus prepared cDNA (9 μl). Real-time PCR was performed using an Applied Biosystems 7900 Fast Real-Time PCR system under the following conditions: denaturation at 95° C. for 10 minutes and 40 cycles of 95° C. for 15 seconds and 60° C. for 1 minute. TaqMan probes and assay IDs (available from GenBank/NCBI (U.S.A.)) used for Islet-1, Nkx2.5, GATA-4, α-CA, cardiac troponin I, MLC, MHC, and GAPDH are listed in Table 1 below.
ADMPC passaged 4 times by plate culture were detached and washed with TrypLE Select (Life Technologies; the same applies hereafter) and were suspended at a concentration of 1×10^5/mL in Knockout-DMEM (Life Technologies; the same applies hereafter) supplemented with 0, 5, 25, 50, 100, 200, or 500 μM or 1 mM spermine (Wako Pure Chemical Industries, Ltd. (Japan); the same applies hereafter) and 20% KSR (Knockout Serum Replacement; Life Technologies; the same applies hereafter). 10 mL of cells was seeded on an EZ-Sphere low-adhesion culture dish (diameter: 10 cm, AGC; the same applies hereafter), and then suspension culture was performed. […]

[2] = test system: adipose-tissue-derived multi-lineage/multi-potent progenitor cells (ADMPC); test: Induction of the expression of myocardium-committed-cell markers in ADMPC, concentration series (TaqMan PCR, GAPDH ratios); assay type: cell-based, human
Protocol: as §1, §2, §3
ADMPC passaged 4 times by plate culture were detached and washed with TrypLE Select (Life Technologies; the same applies hereafter) and were suspended at a concentration of 1×10^5/mL in Knockout-DMEM (Life Technologies; […], Ltd. (Japan); the same applies hereafter) and 20% KSR (Knockout Serum Replacement; Life Technologies; the same applies hereafter). 10 mL of cells was seeded on an EZ-Sphere low-adhesion culture dish (diameter: 10 cm, AGC; the same applies hereafter), and then suspension culture was performed. After 24 hours, cells were collected, quantitative analysis of expression was performed by TaqMan PCR, and then GAPDH ratios were calculated.

[3] = test system: adipose-tissue-derived multi-lineage/multi-potent progenitor cells (ADMPC); conditions: FIG. 1
Protocol: as §1
Total RNA was isolated from the thus obtained cells using an RNeasy mini kit (Qiagen) according to protocols recommended by the manufacturer. […]

SMILES: C[S+](C)[O-] [DMSO]
- Cardiac troponin I/DMSO ratio ([1]; 0.1% in medium, 48 hours): 1
- Cardiac α-actin/DMSO ratio ([1]; 0.1% in medium, 48 hours): 1
- GATA4/DMSO ratio ([1]; 0.1% in medium, 48 hours): 1
- Isl1/DMSO ratio ([1]; 0.1% in medium, 48 hours): 1
- MHC/DMSO ratio ([1]; 0.1% in medium, 48 hours): Not detected
- MLC/DMSO ratio ([1]; 0.1% in medium, 48 hours): 1
- Nkx2.5/DMSO ratio ([1]; 0.1% in medium, 48 hours): 1

SMILES: NCCCNCCCCNCCCN [Spermine, spermine]
- expression of isl-1, nkx2.5, GATA-4, α-CA, cardiac troponin I and MHC ([2]; spermine 0, 5, 25, 50, 100, 200, 500 μM or 1 mM, suspension culture 24 hours): expression was confirmed
- concentration at which all markers exhibited the highest expression levels ([2]; spermine series 0-1 mM, 24 hours): 100 µM
- expression levels of all markers, treatment with spermine compared with treatment with DMSO ([1]; 100 μM spermine 24, 72, 120 hours vs 0.1% DMSO 48 hours): several to several hundred times greater
- Cardiac troponin I/DMSO ratio ([1]; 100 μM, 1 day culture): 7.91
- Cardiac α-actin/DMSO ratio ([1]; 100 μM, 1 day culture): 192.84
- GATA4/DMSO ratio ([1]; 100 μM, 1 day culture): 3.75
- Isl1/DMSO ratio ([1]; 100 μM, 1 day culture): 6.79
- MHC/DMSO ratio ([1]; 100 μM, 1 day culture): 2.31 × 10^−6
- MLC/DMSO ratio ([1]; 100 μM, 1 day culture): 0.67
- Nkx2.5/DMSO ratio ([1]; 100 μM, 1 day culture): 3.58
- Cardiac troponin I/DMSO ratio ([1]; 100 μM, 3 days culture): 25.16
- Cardiac α-actin/DMSO ratio ([1]; 100 μM, 3 days culture): 169.75
- GATA4/DMSO ratio ([1]; 100 μM, 3 days culture): 8.19
- Isl1/DMSO ratio ([1]; 100 μM, 3 days culture): 10.44
- MHC/DMSO ratio ([1]; 100 μM, 3 days culture): 3.74 × 10^−5
- MLC/DMSO ratio ([1]; 100 μM, 3 days culture): 0.88
- Nkx2.5/DMSO ratio ([1]; 100 μM, 3 days culture): 5.19
- Cardiac troponin I/DMSO ratio ([1]; 100 μM, 5 days culture): 11.87
- Cardiac α-actin/DMSO ratio ([1]; 100 μM, 5 days culture): 42.85
- GATA4/DMSO ratio ([1]; 100 μM, 5 days culture): 12.15
- Isl1/DMSO ratio ([1]; 100 μM, 5 days culture): 3.49
- MHC/DMSO ratio ([1]; 100 μM, 5 days culture): 7.67 × 10^−6
- MLC/DMSO ratio ([1]; 100 μM, 5 days culture): 0.45
- Nkx2.5/DMSO ratio ([1]; 100 μM, 5 days culture): 7.47
- effect of presence or absence of growth factors (EGF, bFGF) on the expression levels ([3]; 100 μM spermine): did not significantly affect
- expression of isl-1, nkx2.5, GATA-4, α-CA, cardiac troponin I, MHC and MLC ([3]; 100 μM, 24, 72 and 120 hours): Expression was confirmed

SMILES: NCCCCNCCCN [spermidine]
- expression of isl-1, nkx2.5 and GATA-4 ([2]; spermidine 0, 5, 25, 50, 100, 200, 500 μM or 1 mM, suspension culture 24 hours): expression was confirmed
- concentration at which all markers (isl-1, nkx2.5, GATA-4) exhibited the highest expression levels ([2]; spermidine series 0-1 mM, 24 hours): 200 µM
